{"source": "patent US20120196858A1", "about": "“METHOD OF PROMOTING APOPTOSIS AND INHIBITING METASTASIS” (Poniard Pharmaceuticals ,Inc., priority 2009, published 2012)", "key": {"[1]": {"test": "Pharmacokinetic (PK) evaluation in mice", "type": "in vivo, Balb/c mice", "protocol": "Blood samples were collected via terminal heart puncture at 0.5, 1, 2, 4, 8, 12, 24 and 48 h for p.o. administration and 0.083, 0.25, 0.5, 1, 2, 4, 8, 12, 24 and 48 h for i.p. and i.v. administration. 3 mice per time point were used. For ad libitum administration, blood samples were collected after 7 days using five mice per group. Samples were collected in tubes containing 0.05 ml 0.5 M EDTA, centrifuged at 900×g for 15 min at room temperature, and the plasma collected. PND-1186 content was determined by high-performance liquid chromatography (HPLC) and mass spectroscopy analyses (see Supplemental Methods)."}, "4T1 cells [2]": {"system": "4T1 cells", "test": "Millicell chamber motility assay (fibronectin, serum chemotaxis)", "type": "cell-based, murine", "conditions": "Mus musculus, 4 h, read-out: maximal inhibition of cell movement", "protocol": "Cell migration assays: Serum-stimulated chemotaxis using Millicell (12 mm diameter with 8 μm pores; Millipore) chambers were performed as described previously^49. Both sides of membrane were coated with fibronectin (10 μg/ml) and chemotaxis was stimulated by addition of 10% FBS to the lower chamber. Data points represent cell counts (9 fields) from three migration chambers from at least two independent experiments. For scratch-wound closure motility assays, cells were seeded onto fibronectin-coated (10 μg/ml) glass bottom 12 well plates (MatTek) and serum starved (0.5% FBS) for 16 h. Cells were wounded with a pipette tip, washed with phosphate-buffered salin (PBS), and replenished with 10% FBS media with or without FAK inhibitor (1 μM). Time-lapse series was obtained by acquiring images at 10 min intervals for up to 22 h, at 37° C. with humidity and CO2 regulation using a 10× objective on an automated stage (Olympus IX81). Cell trajectories and distance traveled were measured by tracking nucleus position over time using Image J."}, "[3]": {"system": "caspase 3 cleavage in 4T1 cells", "test": "Cleaved caspase 3 immunoblotting of cell lysates", "type": "cell-based, murine", "conditions": "24 h", "source_text": "Immunoblotting: Protein extracts of cells were made using lysis buffer containing 1% Triton X-100, 1% sodium deoxycholate, and 0.1% SDS and were separated by 4-12% SDS-PAGE (sodium dodecyl sulfate polyacrylamide gel electrophoresis) and sequential immunoblotting performed as described in Mitra S K, Lim S T, Chi A, Schlaepfer D D. Intrinsic focal adhesion kinase activity controls orthotopic breast carcinoma metastasis via the regulation of urokinase plasminogen activator expression in a syngeneic tumor model. Oncogene 2006; 25:4429-40. Relative expression levels and phospho-specific antibody reactivity were measured by densitometry analyses of blots using Image J (version 1.42q). Inhibition of FAK and p130Cas tyrosine phosphorylation was quantified by calculating the ratio of pY397 FAK protein to total FAK. […]\nCell pellets were resuspended in 300 p. […] Samples were analyzed by flow cytometry (FACSCalibur, Becton-Dickinson) and cell cycle analyses were performed by ModFit LT3.2 software (Verity software house). Hypodiploid DNA content as a measure of cell apoptosis was detected by PI staining as described ^29. […] Apoptosis was calculated to be the percent of annexin V-positive cells. In the soft agar assays, apoptosis was quantified by visual inspection of at least 200 cells and was defined as the appearance of membrane blebbing or cell shrinkage. […]"}, "4T1 cells [4]": {"system": "4T1 cells", "test": "Cell cycle analysis by propidium iodide staining and flow cytometry", "type": "cell-based, murine", "conditions": "1.0 μM", "protocol": "Cell pellets were resuspended in 300 p. 1 of PBS containing propidium iodide (PI) (10 μg/ml), DNAse-free RNAse (100 μg/ml, Qiagen), and then incubated at 37° C. with agitation for 1 h. Samples were analyzed by flow cytometry (FACSCalibur, Becton-Dickinson) and cell cycle analyses were performed by ModFit LT3.2 software (Verity software house). Hypodiploid DNA content as a measure of cell apoptosis was detected by PI staining as described ^29. […] Quadrant gates were positioned based on cell autofluorescence (negative) staurosporine-treated (positive) controls. Apoptosis was calculated to be the percent of annexin V-positive cells. In the soft agar assays, apoptosis was quantified by visual inspection of at least 200 cells and was defined as the appearance of membrane blebbing or cell shrinkage. Apoptosis was also detected by appearance of cleaved caspase-3 antibody reactivity in protein lysates by immunoblotting."}, "[5]": {"test": "Pharmacodynamic (PD) evaluation in subcutaneous 4T1 tumors, single i.p. injection", "type": "in vivo, Balb/c mice", "conditions": "Balb/c, mouse, intraperitoneal, 100 mg/kg i.p., 12 h"}, "[6]": {"system": "FAK and p130Cas phosphorylation in 4T1 tumors", "test": "Pharmacodynamic (PD) evaluation in subcutaneous 4T1 tumors, single i.p. injection", "type": "in vivo, Balb/c mice", "conditions": "for maximal plasma levels: single injection"}, "4T1 cells [7]": {"system": "4T1 cells", "test": "Adherent and suspended (non-adherent) cell growth, cell numbers", "type": "cell-based, murine", "protocol": "Anchorage-dependent, spheroid, and soft agar cell growth assays: Cells (2×10^5) were plated per 35 mm well under adherent (tissue culture-treated) and non-adherent conditions (poly-HEMA-coated) in 6-well plates (Costar) in growth media. Between 24 and 168 h, all cells were collected, a single cell suspension was prepared by limited trypsin-EDTA treatment, and viable cells were enumerated by trypan blue staining and counting (ViCell XR, Beckman). For spheroid area determination, cells were imaged after 72 h in phase contrast using an Olympus IX51 microscope. Area was calculated using Image J software (version 1.43). For soft agar assays, 48-well plates were coated with a 1:4 mix of 2% agar (EM Science) in 0.2 ml growth media (bottom layer). 5×10^4 cells were plated per well (in triplicate) in a mixture of 0.3% agar in 0.2 ml growth media (top layer). […] After 10 days, colonies were imaged in phase contrast, enumerated by counting 9 fields (3 fields per well), and total area determined using Image J. For all analyses, experimental points were performed in triplicate and were experiments were repeated at least two times."}}, "note": "Read-outs that look alike come from different tables or passages of the source."}
{"smiles": "CNC(=O)c1ccccc1Nc1cc(Nc2ccc(N3CCOCC3)cc2OC)ncc1C(F)(F)F", "note": "[PND-1186]", "values": [{"measurement": "CSS", "setting": "[1]; 0.5 mg/ml ad libitum, mice", "result": 1.16, "unit": "µM"}, {"measurement": "AUC(0-inf)", "setting": "[1]; 2 mg/kg i.v., mice", "result": "6,960 ng · h/mL"}, {"measurement": "Cl", "setting": "[1]; 2 mg/kg i.v., mice", "result": 4.78, "unit": "mL/min/kg"}, {"measurement": "Vd", "setting": "[1]; 2 mg/kg i.v., mice", "result": 0.714, "unit": "L/kg"}, {"measurement": "t1/2", "setting": "[1]; 2 mg/kg i.v., mice", "result": 1.72, "unit": "h"}, {"measurement": "AUC(0-inf)", "setting": "[1]; 30 mg/kg i.p., mice", "result": "32,500 ng · h/mL"}, {"measurement": "Cmax", "setting": "[1]; 30 mg/kg i.p., mice", "result": 34.8, "unit": "µM"}, {"measurement": "TMAX", "setting": "[1]; 30 mg/kg i.p., mice", "result": 0.25, "unit": "h"}, {"measurement": "t1/2", "setting": "[1]; 30 mg/kg i.p., mice", "result": 2.27, "unit": "h"}, {"measurement": "AUC(0-inf)", "setting": "[1]; 100 mg/kg i.p., mice", "result": "147,000 ng · h/mL"}, {"measurement": "Cmax", "setting": "[1]; 100 mg/kg i.p., mice", "result": 117, "unit": "µM"}, {"measurement": "TMAX", "setting": "[1]; 100 mg/kg i.p., mice", "result": 0.50, "unit": "h"}, {"measurement": "t1/2", "setting": "[1]; 100 mg/kg i.p., mice", "result": 2.65, "unit": "h"}, {"measurement": "maximal plasma level", "setting": "[1]; 150 mg/kg oral, by 4 h", "result": "~14", "unit": "µM"}, {"measurement": "sustained plasma level", "setting": "[1]; 150 mg/kg oral, for 12 h", "result": "above 3 μM"}, {"measurement": "AUC(0-inf)", "setting": "[1]; 150 mg/kg p.o., mice", "result": "77,400 ng · h/mL"}, {"measurement": "Cmax", "setting": "[1]; 150 mg/kg p.o., mice", "result": 14, "unit": "µM"}, {"measurement": "TMAX", "setting": "[1]; 150 mg/kg p.o., mice", "result": 4.00, "unit": "h"}, {"measurement": "t1/2", "setting": "[1]; 150 mg/kg p.o., mice", "result": 2.15, "unit": "h"}, {"measurement": "AUC(0-inf)", "setting": "[1]; Balb/c, mouse, plasma, oral, 0.5 mg/kg, 0.5 mg/ml ad libitum, mice, read-out: AUC(0-inf)", "result": 13.1, "unit": "ng·h/mL"}, {"measurement": "bioavailability (% F)", "setting": "[1]; i.p. and p.o. dosing", "result": "14.8 to 42.2", "unit": "%"}, {"measurement": "terminal half lives (t1/2)", "setting": "[1]; i.p. and p.o. dosing", "result": "2.15 to 2.65", "unit": "h"}, {"measurement": "dose dependence of plasma concentrations, Cmax and AUC(0-inf)", "setting": "[1]; mouse, in vivo", "result": "increased in a linear fashion as a function of dose"}, {"measurement": "inhibition at 0.4 µM", "setting": "4T1 cells [2]", "result": "50 to 60", "unit": "%"}, {"measurement": "cleaved caspase 3, adherent cells", "setting": "[3]", "result": "not detectable"}, {"measurement": "cleaved caspase 3, suspended cells", "setting": "[3]", "result": "increased in PND-1186-treated suspended cells (maximal at 0.4 μM)"}, {"measurement": "cell cycle distribution, suspended cells", "setting": "4T1 cells [4]", "result": "did not reveal cell cycle differences"}, {"measurement": "cell cycle distribution, adherent cells", "setting": "4T1 cells [4]; 72 h, vs DMSO", "result": "slight accumulation in the S and G2/M phases"}, {"measurement": "sub-diploid (1N) cells, suspended cells", "setting": "4T1 cells [4]; PI staining", "result": "accumulation of sub-diploid (1N) cells"}, {"measurement": "concentration at 12 h", "setting": "[5]; plasma, read-out: average concentration in plasma at 12 h", "result": 15.1, "unit": "µM"}, {"measurement": "concentration at 12 h", "setting": "[5]; tumor, read-out: average concentration in tumors at 12 h", "result": 10400, "unit": "ng/g"}, {"measurement": "duration of tumor FAK pY397 inhibition", "setting": "[6]; 30 mg/kg i.p.", "result": "3 to 6", "unit": "h"}, {"measurement": "maximal PND-1186 in tumors", "setting": "[6]; 30 mg/kg i.p.", "result": 0.75, "unit": "µg/g"}, {"measurement": "time to maximal PND-1186 in tumors", "setting": "[6]; 30 mg/kg i.p.", "result": "≤ 1", "unit": "h"}, {"measurement": "time to maximal plasma levels", "setting": "[6]; 30 mg/kg i.p.", "result": "≤ 15", "unit": "min"}, {"measurement": "plasma levels at 12 h", "setting": "[6]; 30 mg/kg i.p., 12 h", "result": 0.1, "unit": "µM"}, {"measurement": "tumor FAK pY397 phosphorylation at 12 h", "setting": "[6]; 30 mg/kg i.p., 12 h", "result": "not significantly inhibited"}, {"measurement": "tumor PND-1186 levels by 12 h", "setting": "[6]; 30 mg/kg i.p., 12 h", "result": 0.04, "unit": "µg/g"}, {"measurement": "maximal plasma levels", "setting": "[6]; 30 mg/kg i.p.", "result": 35, "unit": "µM"}, {"measurement": "time to maximal PND-1186 in tumors", "setting": "[6]; 100 mg/kg i.p.", "result": "≤ 1", "unit": "h"}, {"measurement": "time to maximal plasma levels", "setting": "[6]; 100 mg/kg i.p.", "result": "≤ 30", "unit": "min"}, {"measurement": "plasma levels at 12 h", "setting": "[6]; 100 mg/kg i.p., 12 h", "result": 1.1, "unit": "µM"}, {"measurement": "p130Cas Tyr-410 phosphorylation (pY410Cas) in tumors", "setting": "[6]; 100 mg/kg i.p., by 3 h", "result": "significantly reduced p130Cas Tyr-410 phosphorylation"}, {"measurement": "sustained inhibition of tumor FAK Tyr-397 phosphorylation", "setting": "[6]; 100 mg/kg i.p., for 12 h", "result": "> 60", "unit": "%"}, {"measurement": "maximal plasma levels", "setting": "[6]; 100 mg/kg i.p.", "result": 117, "unit": "µM"}, {"measurement": "maximal PND-1186 in tumors", "setting": "[6]; 100 mg/kg i.p., maintained up to 12 h", "result": 16.1, "unit": "µg/g"}, {"measurement": "reduction of cell number, suspended cells", "setting": "4T1 cells [7]; 0.1 μM, 72 h, vs DMSO", "result": "significant (p<0.001)"}, {"measurement": "cell proliferation, FAK-Cas phosphorylation and cell death", "setting": "4T1 cells [7]; 100 nM, colonies in soft agar or non-adherent conditions", "result": "inhibited cell proliferation, FAK-Cas phosphorylation, and induced cell death"}, {"measurement": "total cell number, adherent cells", "setting": "4T1 cells [7]; 1.0 μM, 72 h", "result": "decreased in number"}, {"measurement": "total cell number, adherent cells", "setting": "4T1 cells [7]; 0.1 to 1.0 μM, 24 or 48 h", "result": "no differences were observed"}, {"measurement": "total cell number, suspended cells", "setting": "4T1 cells [7]; all concentrations (0.1 to 1.0 μM), 48 h", "result": "reduced cell numbers"}, {"measurement": "cytotoxicity to cells in culture", "setting": "4T1 cells [7]; cells in culture", "result": "non-cytotoxic"}]}
